For data set [1], the target named is T1, serotonin (5-HT) transporter (SERT) (Rattus norvegicus (Rat), UniProt P31652). Kind of data set: Rat synaptosome SERT [3H]5-HT uptake inhibition assay. Particulars: 5 nM [3H]5-HT.
The target in data set [2] is human 5-HT transporter (hSERT) (Homo sapiens (Human), UniProt P31645). Kind of data set: Human serotonin transporter  assay ([3H]imipramine radioligand, CHO cells). To be noted: for IC50: 2 nM [3H]imipramine; for Ki: Cheng Prusoff equation. The data set is classed as binding. The procedure: Benzofuran derivatives were evaluated for inhibiting the human 5-HT transporter (hSERT) as expressed in CHO cells using an antagonist radioligand assay (Tatsumi, M. et al. (1999), Eur. J Pharmacol., 368: 277-283). […] Test compounds were assayed in three trials at […], and 0.94868 μM.

In data set [3] the target is T1, serotonin (5-HT) transporter (SERT). The data set is described as follows: Rat synaptosome SERT [3H]5-HT release assay. Particulars: 5 nM [3H]5-HT.
Data set [4] concerns the target 5-HT1BR (Homo sapiens (Human), UniProt P28222). Kind of data set: 5-HT1BR cAMP secondary messenger agonist assay (HitHunter, CHO-K1). Format: cell-based. The source says: The 5-HT1BR cAMP secondary messenger agonist assay used a panel of CHO-K1 cell lines stably expressing non-tagged GPCRs that endogenously signal through cAMP. Hit Hunter® cAMP assays monitored the activation of a GPCR via Gi and Gs secondary messenger signaling in a homogenous, non-imaging assay format using DiscoverX Enzyme Fragment Complementation (EFC) with β-galactosidase as the functional endpoint.
The enzyme was split into two complementary portions: Enzyme Acceptor (EA) and Enzyme Donor (ED). Exogenously introduced ED fused to cAMP (ED-cAMP) competed with endogenously generated cAMP for binding to an anti-cAMP-specific antibody. Active β-galactosidase was formed by complementation of exogenous EA to any unbound ED-cAMP.
Cell lines were expanded from freezer stocks according to standard procedures. Cells were seeded in a total volume of 20 μL into white walled, 384-well microplates and incubated at 37° C. for the appropriate time prior to testing. cAMP modulation was determined using the DiscoverX HitHunter cAMP XS+ assay.
For agonist determination, cells were incubated with sample (in the presence of EC80 forskolin to induce response if measuring Gi secondary messenger signaling). Media was aspirated from cells and replaced with 15 μL 2:1 HBSS/10 mM Hepes:cAMP XS+ Ab reagent. Intermediate dilution of sample stocks was performed to generate 4×sample in assay buffer (optionally containing 4×EC80 forskolin). 5 μL of 4×sample was added to cells and incubated at 37° C. or room temperature for 30 or 60 minutes, as appropriate. Final assay vehicle concentration was 1%.

The nature of data set [5]: Salt screening experiments (PXRD result). Particulars: S-5-MAPB Pure Enantiomer (Pattern 1A Enantiomer) + counterion 1:1 molar ratio, 40° C. The data set is classed as physicochemical.
Where [6] appears, read: read-out: Inhibition of [3H]5-HT Uptake at SERT IC50.
Where [7] appears, read: read-out: [3H]5-HT release via SERT EC50.
Setting [8] is: Inhibition of [3H]5-HT Uptake at SERT IC50 (nM).
The mark [9] stands for this setting: [3H]5-HT release via SERT EC50 (nM).

Where a name gives a salt, the structure may show the parent alone. Read-outs that look alike come from different tables or passages of the source.

Consider “1-(benzofuran-6-yl)-N-methylbutan-2-amine [Compound R-6-MBPB]”, for which the IC50 (commonly the concentration that inhibits the measured activity by half) in data set [1] (setting [6]) was 702 ± 262 nM; in data set [2] (read-out: SERT IC50) it was 5.7 µM. Moreover, the Ki (as a rule, a dissociation constant, usually derived from enzyme kinetics or from competition with a known ligand) in data set [2] (read-out: SERT Ki) is 2.6 µM. Moreover, the EC50 – broadly, the concentration at which the effect is half-maximal – in data set [3] (setting [7]) was 172 ± 82.2 nM.
Taken in the same sequence, the figures for “1-(benzofuran-6-yl)-N-methylbutan-2-amine [Compound S-6-MBPB]” were 217 ± 45.8 nM, 2.7 µM, 1.2 µM and 54.1 ± 33.9 nM.
For `CNC(C)C(=O)c1ccc2occc2c1` (racemic) [rac-BK-5-MAPB, 1-(benzofuran-5-yl)-2-(methylamino)propan-1-one hydrochloride], in data set [4], the “Hill Coef.” value came to 0.91. Also, in data set [4] (5-HT1BR EC50 (μM)), the EC50 was found to be 0.14 µM.
Consider `CCC(NC)C(=O)c1ccc2occc2c1` (racemic) [rac-BK-5-MBPB, 1-(benzofuran-5-yl)-2-(methylamino)butan-1-one hydrochloride], for which the “Hill Coef.” value in data set [4] turned out to be 1.01. Further, the EC50 in data set [4] (5-HT1BR EC50 (μM)) was 19.6 µM.
As to `CNC(C)C(=O)c1ccc2ccoc2c1` (racemic) [rac-BK-6-MAPB, 1-(benzofuran-6-yl)-2-(methylamino)propan-1-one hydrochloride], the “Hill Coef.” value in data set [4] turned out to be 0.99. A half-maximal effect in data set [4] (5-HT1BR EC50 (μM)) (EC50) was put at 0.537 µM.
Turning to `CCC(NC)C(=O)c1ccc2ccoc2c1` (racemic) [rac-BK-6-MBPB, 1-(benzofuran-6-yl)-2-(methylamino)butan-1-one hydrochloride], the EC50 in data set [4] (5-HT1BR EC50 (μM)) was more than 30 µM.
In data set [4] (5HT1B Agonist (μM)), `CNC(C)C(=O)c1ccc2occc2c1` (single isomer, unassigned) [Enantiomer 1 BK-5-MAPB, 1-(benzofuran-5-yl)-2-(methylamino) propan-1-one] yielded an EC50 of 0.08 µM.
Same read-out and setting: next, `CNC(C)C(=O)c1ccc2occc2c1` (single isomer, unassigned) [Enantiomer 2 BK-5-MAPB, 1-(benzofuran-5-yl)-2-(methylamino) propan-1-one]: 3.07 µM.
In the case of `CNC(C)C(=O)c1ccc2occc2c1` (single isomer, unassigned; (+)) [(+)-BK-5-MAPB, 1-(benzofuran-5-yl)-2-(methylamino) propan-1-one], the half-maximal inhibitory concentration (IC50) in data set [1] (setting [8]) was found to be 2090 ± 151 nM; in data set [2] (SERT IC50 (μM)), 38 µM. Moreover, the “Hill Coef.” value in data set [4] is 1.05. In addition, the EC50 in data set [4] (5-HT1BR EC50 (μM)) was determined as 3.07 µM; in data set [3] (setting [9]), 439 ± 72.5 nM. This compound displayed an inhibitory constant (Ki) in data set [2] (SERT Ki (μM)) of 17 µM.
In data set [4] (5-HT1BR EC50 (μM)), `CCC(NC)C(=O)c1ccc2occc2c1` (single isomer, unassigned; (+)) [(+)-BK-5-MBPB, 1-(benzofuran-5-yl)-2-(methylamino) butan-1-one] returned an EC50 of more than 30 µM. In data set [2] (SERT IC50 (μM)), this compound displayed an IC50 of 6.5 µM. The Ki in data set [2] (SERT Ki (μM)) is 3 µM.
Regarding `CNC(C)C(=O)c1ccc2ccoc2c1` (single isomer, unassigned; (+)) [(+)-BK-6-MAPB, 1-(benzofuran-6-yl)-2-(methylamino) propan-1-one], inhibition in data set [1] (setting [8]) was half-maximal at 5470 ± 424 nM (IC50). For the same compound, the figures for the EC50 in data set [4] (5-HT1BR EC50 (μM)) and in data set [3] (setting [9]) were more than 10 µM and 1280 ± 268 nM, respectively.
On to `CCC(NC)C(=O)c1ccc2ccoc2c1` (single isomer, unassigned; (+)) [(+)-BK-6-MBPB, 1-(benzofuran-6-yl)-2-(methylamino)butan-1-one], for which the EC50 in data set [4] (5-HT1BR EC50 (μM)) is more than 30 µM. Also, the IC50 in data set [2] (SERT IC50 (μM)) came out at 29 µM. The Ki in data set [2] (SERT Ki (μM)) is 13 µM.
Regarding `CNC(C)C(=O)c1ccc2occc2c1` (single isomer, unassigned; (-)) [(−)-BK-5-MAPB, 1-(benzofuran-5-yl)-2-(methylamino) propan-1-one], the IC50 in data set [1] (setting [8]) was 284 ± 11.9 nM; in data set [2] (SERT IC50 (μM)) it was 6.9 µM. The “Hill Coef.” value in data set [4] came to 1.5. The EC50 in data set [4] (5-HT1BR EC50 (μM)) came out at 0.0777 µM; in data set [3] (setting [9]), 80 ± 13.7 nM. Besides, the Ki in data set [2] (SERT Ki (μM)) is 3.2 µM.
`CCC(NC)C(=O)c1ccc2occc2c1` (single isomer, unassigned; (-)) [(−)-BK-5-MBPB, 1-(benzofuran-5-yl)-2-(methylamino) butan-1-one]: in data set [4], the “Hill Coef.” value amounted to 1.6241. The same compound returned an EC50 in data set [4] (5-HT1BR EC50 (μM)) of 6.61 µM. The compound further yielded an IC50 in data set [2] (SERT IC50 (μM)) of 1.6 µM. Moreover, in data set [2] (SERT Ki (μM)), affinity was put at a Ki of 0.72 µM.
As to `CNC(C)C(=O)c1ccc2ccoc2c1` (single isomer, unassigned; (-)) [(−)-BK-6-MAPB, 1-(benzofuran-6-yl)-2-(methylamino) propan-1-one], the values for the IC50 in data set [1] (setting [8]) and in data set [2] (SERT IC50 (μM)) were 275 ± 13 nM and 12 µM, respectively. Further, the “Hill Coef.” value in data set [4] was 0.8339. Also, the concentration for a half-maximal effect (EC50) in data set [4] (5-HT1BR EC50 (μM)) amounted to 0.288 µM; in data set [3] (setting [9]), 72.2 ± 16.6 nM. In addition, the Ki in data set [2] (SERT Ki (μM)) was 5.4 µM.
On to `CCC(NC)C(=O)c1ccc2ccoc2c1` (single isomer, unassigned; (-)) [(−)-BK-6-MBPB, 1-(benzofuran-6-yl)-2-(methylamino)butan-1-one], for which the “Hill Coef.” value in data set [4] was 1.9551. For the same compound, the midpoint of the response in data set [4] (5-HT1BR EC50 (μM)), the EC50, lay at 7.52 µM. The compound also displayed an IC50 in data set [2] (SERT IC50 (μM)) of 3.7 µM. For the same compound, affinity in data set [2] (SERT Ki (μM)) was put at a Ki of 1.7 µM.
`O=S(=O)(O)O` [Compound H2SO4]: the “PXRD Result” value in data set [5] (solvent Acetone), in data set [5] (solvent EtOH:water 90:10), in data set [5] (solvent MeOH:water 90:10) and in data set [5] (solvent THF) was “N/A (gel)” each time.
As for `O=P(O)(O)O` [Compound H3PO4], in data set [5] (solvent MeOH:water 90:10), the “PXRD Result” value is “N/A (gel)”.
Turning to `O=[N+]([O-])O` [HNO3], the “PXRD Result” value in data set [5] (solvent Acetone), in data set [5] (solvent EtOH:water 90:10), in data set [5] (solvent MeOH:water 90:10) and in data set [5] (solvent THF) was “N/A (gel)” in each case.
Take `N=C(N)NCCC[C@H](N)C(=O)O` [L-Arginine]: the “PXRD Result” value in data set [5] (solvent Acetone), in data set [5] (solvent EtOH:water 90:10), in data set [5] (solvent MeOH:water 90:10) and in data set [5] (solvent THF) was “N/A (gel)” each time.
As for `NCCCC[C@H](N)C(=O)O` [L-Lysine], the “PXRD Result” value in data set [5] (solvent Acetone) is “N/A (gel)”; in data set [5] (solvent EtOH:water 90:10) it was “N/A (gel)”; in data set [5] (solvent MeOH:water 90:10), “N/A (gel)”; in data set [5] (solvent THF), “L-Lysine”.
Turning to `O=C(O)/C=C\C(=O)O` [Maleic], the “PXRD Result” value in data set [5] (solvent Acetone), in data set [5] (solvent EtOH:water 90:10), in data set [5] (solvent MeOH:water 90:10) and in data set [5] (solvent THF) was “N/A (gel)” throughout.
Regarding `CS(=O)(=O)O` [Methane Sulfonic], the “PXRD Result” value in data set [5] (solvent Acetone), in data set [5] (solvent EtOH:water 90:10), in data set [5] (solvent MeOH:water 90:10) and in data set [5] (solvent THF) was “N/A (gel)” in each case.
With `O=C(O)CCC(=O)O` [Succinic], the “PXRD Result” value in data set [5] (solvent Acetone), in data set [5] (solvent EtOH:water 90:10), in data set [5] (solvent MeOH:water 90:10) and in data set [5] (solvent THF) was “N/A (gel)” throughout.
For the compound Fumaric, the “PXRD Result” value in data set [5] (solvent Acetone), in data set [5] (solvent MeOH:water 90:10) and in data set [5] (solvent THF) was “N/A (gel)” each time.

The values are drawn from patent publication US11767305B2, “Advantageous benzofuran compositions for mental disorders or enhancement” (Tactogen Inc, priority 2020, dated 2023).
